Reference: ChEMBL document CHEMBL1201862, “PubChem BioAssay data set” (2004)
Active and inactive are the calls of the source.

How the values were obtained:
[1] = target: Voltage-dependent T-type calcium channel subunit alpha-1H (Homo sapiens, UniProt O95180); type: functional;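 note: channel activity triggered by adding a high calcium stimulation buffer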
CHO = CHO cell viability loss, potency – luminescence, cytotoxicity control for TLR9-MyD88 binding inhibitor project, dose response (AID 588339); type: functional, cell-based, hamster; conditions: Cricetulus griseus;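 note: CHO cells stably coexpressing TLR9 and MyD88 fusions from primary screen; compound exposure lasted 48 hours before viability readout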
Beta Lactamase = Beta Lactamase (Pseudomonas aeruginosa, UniProt Q932Y6); assay: BLA reporter interference, concentration series – BLA reporter cells, FRET fluorescence, artefact control for TLR9-MyD88 binding inhibitor project, dose response (AID 588341); type: cell-based;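 note: cell based assay in CHO-K1 cells stably expressing beta-lactamase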
Chain of Beta Lactamase (Q932Y6 whole entry): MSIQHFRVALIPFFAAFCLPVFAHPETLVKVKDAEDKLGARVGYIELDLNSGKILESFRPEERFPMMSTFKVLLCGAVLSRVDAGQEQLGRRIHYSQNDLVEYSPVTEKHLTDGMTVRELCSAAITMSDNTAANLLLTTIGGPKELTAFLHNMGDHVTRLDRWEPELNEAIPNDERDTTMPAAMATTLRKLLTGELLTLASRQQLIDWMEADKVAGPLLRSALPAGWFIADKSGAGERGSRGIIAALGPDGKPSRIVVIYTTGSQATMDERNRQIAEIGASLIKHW

Protein skinhead-1 = target: T1, Protein skinhead-1 (Caenorhabditis elegans, UniProt P34707); type: functional
T1 sequence (P34707 whole entry): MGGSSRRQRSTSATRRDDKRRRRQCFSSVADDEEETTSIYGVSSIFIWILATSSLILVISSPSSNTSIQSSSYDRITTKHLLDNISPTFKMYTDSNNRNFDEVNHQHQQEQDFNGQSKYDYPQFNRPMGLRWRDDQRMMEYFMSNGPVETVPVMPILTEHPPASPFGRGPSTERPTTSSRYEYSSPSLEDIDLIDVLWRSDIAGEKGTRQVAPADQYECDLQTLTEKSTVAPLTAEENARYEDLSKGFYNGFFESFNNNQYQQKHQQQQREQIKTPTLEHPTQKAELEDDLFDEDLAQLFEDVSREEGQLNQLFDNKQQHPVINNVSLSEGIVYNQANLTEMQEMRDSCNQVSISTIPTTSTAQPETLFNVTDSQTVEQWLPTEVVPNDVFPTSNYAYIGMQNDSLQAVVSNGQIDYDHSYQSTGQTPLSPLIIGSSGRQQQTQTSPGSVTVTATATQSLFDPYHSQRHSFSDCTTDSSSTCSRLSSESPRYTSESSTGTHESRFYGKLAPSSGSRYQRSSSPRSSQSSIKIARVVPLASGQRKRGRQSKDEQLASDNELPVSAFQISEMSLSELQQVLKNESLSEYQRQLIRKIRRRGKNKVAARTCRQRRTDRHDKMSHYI

[2] = target: T2, Low molecular weight phosphotyrosine protein phosphatase (Homo sapiens, UniProt P24666); type: functional; conditions: read-out: IC50_Mean
T2 sequence (P24666 whole entry): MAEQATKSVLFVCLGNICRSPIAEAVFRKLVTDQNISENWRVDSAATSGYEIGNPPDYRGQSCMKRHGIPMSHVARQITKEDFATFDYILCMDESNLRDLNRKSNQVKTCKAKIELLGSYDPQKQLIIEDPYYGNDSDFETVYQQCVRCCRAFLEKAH

[3] = target: T2, Low molecular weight phosphotyrosine protein phosphatase; type: functional; conditions: read-out: IC50_Mean; remark: listed apart in the source
[4] = activation of miR-122 Renilla sensor silencing – cell-based, Huh7 psiCHECK-miR122, Renilla luciferase, cherry-picked, dose response (AID 651956); type: functional;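 note: huh7 hepatoma cells stably carrying a psiCHECK-2 miR-122 sensor plasmid; renilla luciferase signal reporting endogenous miR-122 activity after 48 h compound exposure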
[5] = target: Intestinal-type alkaline phosphatase (Mus musculus, UniProt P24822); assay: PubChem AID 488785; type: functional
[6] = target: T3, Alkaline phosphatase, tissue-nonspecific isozyme (Homo sapiens, UniProt P05186); assay: TNAP enzyme inhibition by screening hits, dose response, selectivity assay for mouse IAP inhibitor project, biochemical, human TNAP, uHTS hits (AID 488906); type: functional
T3 sequence (P05186 whole entry): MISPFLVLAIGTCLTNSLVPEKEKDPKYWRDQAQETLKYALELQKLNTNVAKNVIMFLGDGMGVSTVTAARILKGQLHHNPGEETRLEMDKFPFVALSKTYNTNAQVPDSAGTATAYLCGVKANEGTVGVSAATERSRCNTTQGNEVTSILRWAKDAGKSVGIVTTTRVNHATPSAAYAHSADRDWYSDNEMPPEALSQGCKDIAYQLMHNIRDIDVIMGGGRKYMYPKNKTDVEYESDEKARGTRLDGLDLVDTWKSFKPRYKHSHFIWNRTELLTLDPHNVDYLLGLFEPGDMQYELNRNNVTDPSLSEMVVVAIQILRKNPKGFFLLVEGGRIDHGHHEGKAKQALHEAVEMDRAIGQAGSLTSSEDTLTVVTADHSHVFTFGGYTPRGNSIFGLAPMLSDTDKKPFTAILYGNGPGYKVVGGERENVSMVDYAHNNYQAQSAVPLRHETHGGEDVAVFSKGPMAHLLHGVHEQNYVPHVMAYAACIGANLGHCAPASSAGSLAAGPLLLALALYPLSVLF

[7] = target: Intestinal-type alkaline phosphatase (Homo sapiens, UniProt P09923); assay: inhibition of human intestinal alkaline phosphatase – biochemical, dose response (AID 488876); type: functional
Chain of Intestinal-type alkaline phosphatase (Homo sapiens, UniProt P09923) (P09923 whole entry): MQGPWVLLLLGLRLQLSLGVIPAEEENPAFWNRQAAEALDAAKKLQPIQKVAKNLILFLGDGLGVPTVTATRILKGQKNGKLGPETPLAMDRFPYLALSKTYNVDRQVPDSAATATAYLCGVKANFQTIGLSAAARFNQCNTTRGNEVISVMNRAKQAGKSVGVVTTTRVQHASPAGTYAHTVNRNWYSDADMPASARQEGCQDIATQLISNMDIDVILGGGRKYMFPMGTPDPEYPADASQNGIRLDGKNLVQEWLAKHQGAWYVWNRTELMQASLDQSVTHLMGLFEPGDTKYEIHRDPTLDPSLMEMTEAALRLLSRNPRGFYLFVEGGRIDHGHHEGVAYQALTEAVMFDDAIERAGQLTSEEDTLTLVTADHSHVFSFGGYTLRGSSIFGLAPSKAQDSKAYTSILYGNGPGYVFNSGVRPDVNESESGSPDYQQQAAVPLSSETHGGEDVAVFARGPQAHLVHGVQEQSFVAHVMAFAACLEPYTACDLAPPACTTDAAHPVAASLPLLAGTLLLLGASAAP

[8] = target: DNA (cytosine-5)-methyltransferase 1 (Homo sapiens, UniProt P26358); assay: inhibition of DNA methylation by DNMT1 – biochemical, fluorescent molecular beacon, confirmation (AID 602386); type: functional
Chain of DNA (cytosine-5)-methyltransferase 1 (P26358 whole entry): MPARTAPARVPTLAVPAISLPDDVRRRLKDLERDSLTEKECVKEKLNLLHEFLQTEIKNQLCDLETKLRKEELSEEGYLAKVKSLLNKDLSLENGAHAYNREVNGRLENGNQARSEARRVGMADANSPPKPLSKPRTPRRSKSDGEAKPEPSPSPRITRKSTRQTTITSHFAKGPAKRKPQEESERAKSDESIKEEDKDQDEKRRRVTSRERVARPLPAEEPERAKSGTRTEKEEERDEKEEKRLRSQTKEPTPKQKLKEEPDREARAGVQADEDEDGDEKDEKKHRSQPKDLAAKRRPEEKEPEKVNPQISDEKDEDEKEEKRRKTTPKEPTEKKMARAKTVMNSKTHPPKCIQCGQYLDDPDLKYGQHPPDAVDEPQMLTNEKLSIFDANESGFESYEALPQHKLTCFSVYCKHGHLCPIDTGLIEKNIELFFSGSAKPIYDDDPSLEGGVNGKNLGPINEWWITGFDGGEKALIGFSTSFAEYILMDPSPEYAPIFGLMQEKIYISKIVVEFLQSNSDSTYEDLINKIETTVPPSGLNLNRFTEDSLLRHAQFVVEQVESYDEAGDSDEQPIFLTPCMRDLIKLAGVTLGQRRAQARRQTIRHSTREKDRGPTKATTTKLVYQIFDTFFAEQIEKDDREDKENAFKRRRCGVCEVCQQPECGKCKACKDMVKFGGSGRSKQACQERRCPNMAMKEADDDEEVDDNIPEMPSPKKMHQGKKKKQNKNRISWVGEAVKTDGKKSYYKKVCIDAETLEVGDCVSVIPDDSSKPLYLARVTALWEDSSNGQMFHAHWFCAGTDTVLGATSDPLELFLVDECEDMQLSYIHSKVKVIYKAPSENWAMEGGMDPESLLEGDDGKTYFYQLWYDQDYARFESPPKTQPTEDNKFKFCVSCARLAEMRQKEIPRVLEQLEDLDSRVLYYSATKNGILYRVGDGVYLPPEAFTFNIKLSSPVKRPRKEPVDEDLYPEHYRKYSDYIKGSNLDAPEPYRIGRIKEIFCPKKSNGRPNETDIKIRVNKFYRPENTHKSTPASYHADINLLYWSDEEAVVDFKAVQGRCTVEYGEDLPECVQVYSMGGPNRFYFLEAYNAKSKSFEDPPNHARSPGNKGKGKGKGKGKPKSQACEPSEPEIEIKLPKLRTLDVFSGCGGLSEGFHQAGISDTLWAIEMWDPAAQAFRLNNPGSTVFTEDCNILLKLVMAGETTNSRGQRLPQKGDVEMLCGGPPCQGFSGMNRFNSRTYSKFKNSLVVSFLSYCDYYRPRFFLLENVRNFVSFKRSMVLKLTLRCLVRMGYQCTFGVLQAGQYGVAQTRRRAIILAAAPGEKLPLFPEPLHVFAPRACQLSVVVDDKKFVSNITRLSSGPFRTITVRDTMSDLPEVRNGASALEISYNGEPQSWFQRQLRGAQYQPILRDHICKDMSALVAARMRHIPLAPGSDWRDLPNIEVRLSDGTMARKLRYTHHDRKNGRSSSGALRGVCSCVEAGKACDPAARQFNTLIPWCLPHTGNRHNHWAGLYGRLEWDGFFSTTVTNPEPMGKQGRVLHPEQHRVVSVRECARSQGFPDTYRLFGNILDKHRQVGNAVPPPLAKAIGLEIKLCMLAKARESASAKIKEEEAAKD

[9] = non-specific 3'UTR reporter inhibition in Clone20-Shn3RL – cell-based, Renilla luciferase, cherry-picked, counter-screen for Shn3 inhibitor project, dose response (AID 624133); type: functional
Caspase-6 = target: T4, Caspase-6 (Homo sapiens, UniProt P55212); assay: inhibition of CASP6 peptide cleavage – biochemical, VEID-R110 fluorescence, cherry-pick, dose response (AID 720632)
T4 sequence (P55212 whole entry): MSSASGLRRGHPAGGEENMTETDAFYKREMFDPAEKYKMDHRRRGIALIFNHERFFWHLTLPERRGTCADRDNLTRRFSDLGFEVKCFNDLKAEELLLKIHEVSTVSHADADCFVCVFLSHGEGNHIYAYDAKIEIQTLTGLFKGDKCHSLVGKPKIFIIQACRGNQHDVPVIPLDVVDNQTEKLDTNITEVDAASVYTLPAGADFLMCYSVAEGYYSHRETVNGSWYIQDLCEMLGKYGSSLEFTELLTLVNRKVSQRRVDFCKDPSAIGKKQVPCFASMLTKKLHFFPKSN

[10] = target: Mitochondrial peptide methionine sulfoxide reductase (Bos taurus, UniProt P54149); type: functional;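 note: absorbance read-out, biochemical high-throughput dose-response screen for MsrA inhibitors, confirmatory; recombinant bovine MsrA coupled to E. coli TrxB with NADPH and selenocystamine; potency is for inhibitors of MsrA activity on DMSO substrate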
Chain of Mitochondrial peptide methionine sulfoxide reductase (P54149 whole entry): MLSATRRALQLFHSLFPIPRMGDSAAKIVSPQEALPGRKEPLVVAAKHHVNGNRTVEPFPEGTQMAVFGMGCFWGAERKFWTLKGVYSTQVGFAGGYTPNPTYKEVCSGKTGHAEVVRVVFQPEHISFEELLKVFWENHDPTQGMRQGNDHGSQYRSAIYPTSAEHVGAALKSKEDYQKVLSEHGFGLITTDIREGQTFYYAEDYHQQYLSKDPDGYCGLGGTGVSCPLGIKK

[11] = Trypanosoma cruzi growth suppression in host cells – NIH3T3 host cells, beta-gal luminescence, confirmation (AID 2044); type: functional, cell-based;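 note: intracellular parasites grown in NIH/3T3 mouse fibroblasts as host cells; luminescent beta-galactosidase reporter signal from transgenic T. cruzi replicating inside host cells; inhibitors lower the luminescence signal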
[12] = NIH3T3 cell viability loss – ATP luminescence, mouse fibroblasts, counter-screen, dose response (AID 2010); type: functional, cell-based;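 note: cells exposed to compound for about 90 hours before reading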
Vero = assay: inhibition of WNV-induced cytopathic effect – cell-based, CPE readout (AID 1621); type: functional; conditions: Chlorocebus sabaeus
Melanocortin receptor 4 = Melanocortin receptor 4 (Homo sapiens, UniProt P32245); type: functional, cell-based;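 note: Cell-based assay with luminescence read-out, confirmatory dose-response testing for agonist activity of biased ligands at MC4R; human U2OS cells with tagged receptor and beta-arrestin; potency of agonists that increase receptor coupling to beta-arrestin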
[13] = target: Ras and Rab interactor 1/Tyrosine-protein kinase ABL1 (Homo sapiens, UniProt P00519+Q13671); type: functional;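 note: biochemical TR-FRET dose-response test measuring inhibition of binding between Rin1 and Abl proteins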
Chain of Ras and Rab interactor 1/Tyrosine-protein kinase ABL1 (P00519 whole entry): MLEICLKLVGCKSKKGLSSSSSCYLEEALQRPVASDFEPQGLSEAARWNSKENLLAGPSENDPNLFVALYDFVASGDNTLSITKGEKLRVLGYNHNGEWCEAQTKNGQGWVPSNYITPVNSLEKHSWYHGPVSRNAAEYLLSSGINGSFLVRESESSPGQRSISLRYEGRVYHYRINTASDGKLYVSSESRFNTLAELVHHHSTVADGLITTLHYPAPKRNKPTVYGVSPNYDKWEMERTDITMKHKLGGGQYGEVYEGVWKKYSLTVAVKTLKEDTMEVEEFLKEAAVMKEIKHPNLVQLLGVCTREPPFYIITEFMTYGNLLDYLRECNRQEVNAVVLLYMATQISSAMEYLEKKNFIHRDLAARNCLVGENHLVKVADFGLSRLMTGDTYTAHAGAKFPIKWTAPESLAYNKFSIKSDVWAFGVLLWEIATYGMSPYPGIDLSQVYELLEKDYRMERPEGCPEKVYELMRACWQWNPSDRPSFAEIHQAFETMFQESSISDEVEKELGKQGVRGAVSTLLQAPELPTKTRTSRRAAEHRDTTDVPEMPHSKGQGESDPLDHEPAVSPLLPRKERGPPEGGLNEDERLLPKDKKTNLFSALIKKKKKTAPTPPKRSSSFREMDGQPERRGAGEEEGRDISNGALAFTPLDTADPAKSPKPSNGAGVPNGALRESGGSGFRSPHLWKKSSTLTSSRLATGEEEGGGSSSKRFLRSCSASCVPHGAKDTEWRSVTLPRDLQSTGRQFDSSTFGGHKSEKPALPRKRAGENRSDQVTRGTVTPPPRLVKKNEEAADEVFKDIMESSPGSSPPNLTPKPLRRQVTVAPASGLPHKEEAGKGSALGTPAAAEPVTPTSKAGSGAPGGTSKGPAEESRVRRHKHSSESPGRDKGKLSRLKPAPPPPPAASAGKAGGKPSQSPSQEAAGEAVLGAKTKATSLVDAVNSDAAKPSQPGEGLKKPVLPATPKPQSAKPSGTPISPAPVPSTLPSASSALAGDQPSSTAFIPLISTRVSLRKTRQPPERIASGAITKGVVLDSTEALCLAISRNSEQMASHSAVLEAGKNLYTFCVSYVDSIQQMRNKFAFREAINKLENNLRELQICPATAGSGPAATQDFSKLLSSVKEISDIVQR
Chain of Ras and Rab interactor 1/Tyrosine-protein kinase ABL1 (Q13671 whole entry): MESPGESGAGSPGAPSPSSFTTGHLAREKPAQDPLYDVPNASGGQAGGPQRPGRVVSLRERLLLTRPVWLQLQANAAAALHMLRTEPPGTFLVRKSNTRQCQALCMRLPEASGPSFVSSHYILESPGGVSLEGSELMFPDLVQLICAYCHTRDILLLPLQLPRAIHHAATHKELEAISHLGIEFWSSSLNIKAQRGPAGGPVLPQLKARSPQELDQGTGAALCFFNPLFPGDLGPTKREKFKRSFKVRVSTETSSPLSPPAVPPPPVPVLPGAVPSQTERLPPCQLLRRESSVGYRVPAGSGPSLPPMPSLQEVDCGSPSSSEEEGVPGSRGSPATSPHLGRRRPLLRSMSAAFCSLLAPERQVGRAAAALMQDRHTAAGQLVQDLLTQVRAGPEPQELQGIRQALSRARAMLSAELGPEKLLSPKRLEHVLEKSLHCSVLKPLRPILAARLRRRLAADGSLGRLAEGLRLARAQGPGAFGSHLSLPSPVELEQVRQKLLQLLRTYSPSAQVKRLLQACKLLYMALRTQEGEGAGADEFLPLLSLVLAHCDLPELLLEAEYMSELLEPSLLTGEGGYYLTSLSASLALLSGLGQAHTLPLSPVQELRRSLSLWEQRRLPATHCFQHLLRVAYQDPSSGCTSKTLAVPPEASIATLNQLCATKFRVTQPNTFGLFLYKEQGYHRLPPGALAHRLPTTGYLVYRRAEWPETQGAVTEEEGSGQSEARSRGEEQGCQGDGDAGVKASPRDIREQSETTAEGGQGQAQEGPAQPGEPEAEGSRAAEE

[14] = target: T5, Endoribonuclease toxin MazF (Escherichia coli K-12, UniProt P0AE70); assay: activation of MazEF endoribonuclease cleavage – biochemical, fluorescence, single-stranded RNA substrate, uHTS hits, dose response (AID 588481); type: functional
T5 sequence (P0AE70 whole entry): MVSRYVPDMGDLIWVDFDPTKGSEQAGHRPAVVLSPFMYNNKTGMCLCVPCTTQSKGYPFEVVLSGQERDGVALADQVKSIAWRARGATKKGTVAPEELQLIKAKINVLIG

[15] = target: T5, Endoribonuclease toxin MazF; assay: substrate-only fluorescence increase artefacts – biochemical, single-stranded RNase substrate, counter-screen for MazEF activator project, dose response (AID 588502); type: functional
[16] = target: 26S proteasome non-ATPase regulatory subunit 14 (Homo sapiens, UniProt O00487); assay: inhibition of proteasome subunit RPN11 – biochemical, fluorescence polarization, uHTS hits, confirmation (AID 602368); type: functional
Chain of 26S proteasome non-ATPase regulatory subunit 14 (O00487 whole entry): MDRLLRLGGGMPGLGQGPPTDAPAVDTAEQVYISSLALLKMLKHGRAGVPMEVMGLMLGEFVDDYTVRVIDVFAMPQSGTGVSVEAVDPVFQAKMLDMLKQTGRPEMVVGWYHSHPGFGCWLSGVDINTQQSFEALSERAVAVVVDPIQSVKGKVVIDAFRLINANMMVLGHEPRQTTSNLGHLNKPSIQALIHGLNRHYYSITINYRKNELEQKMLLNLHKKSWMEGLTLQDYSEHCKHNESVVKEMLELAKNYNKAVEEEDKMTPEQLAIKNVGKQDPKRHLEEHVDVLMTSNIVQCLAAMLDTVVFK

[17] = target: 72 kDa type IV collagenase (Homo sapiens, UniProt P08253); assay: Dose Response validation of uHTS RPN11 inhibitor hits using a MMP-2 Fluorescence assay.; type: functional
Prothrombin = Prothrombin (Bos taurus, UniProt P00735); assay: thrombin protease inhibitors – biochemical, fluorescence polarization, uHTS hits, dose response (AID 602369); type: functional

CCCN1C(=O)/C(=C/c2ccc(N3CCCC3)c(C)c2)NC1=S
EC50 [1]: 3.84 µM (active)
IC50 (CHO): 32.1 µM (inactive)
IC50 (Beta Lactamase): 6.66 µM (active)
IC50 (Protein skinhead-1): > 100 µM (inactive)

Clc1cccc(Cl)c1Cn1cnc(NCc2ccco2)c2ncnc1-2
IC50 [2]: 9.54 µM (active)
IC50 [3]: 4.06 µM (active)

CC(=O)Nc1ccc(S(=O)(=O)Nc2ccc(S(=O)(=O)Nc3nc(C)cc(C)n3)cc2)cc1
AC50 [4]: 19.7 µM (active)

COc1ccc(C(=O)OCC(=O)Nc2ncc([N+](=O)[O-])s2)cc1OC
IC50 [5]: 8.79 µM (active)
IC50 [6]: 23.7 µM (active)
IC50 [7]: 72.6 µM (active)
IC50 [8]: 4.45 µM (active)
AC50 [9]: 20.8 µM (active)
AC50 (Caspase-6): 4.75 µM (active)

S=C1NC2(CCCC2)Nc2ccccc21
IC50 [10]: 53.6 µM (inactive)

CCN1CCN(CCNC(=O)c2ccc(/C=C3\Sc4ccccc4N(Cc4ccccc4F)C3=O)cc2)CC1
EC50 [11]: 2.03 µM (active)
EC50 [12]: > 60 µM (not active)
IC50 (Vero): 22.8 µM (active)
EC50 (Melanocortin receptor 4): > 89.2 µM (inactive)

CCOc1ccc2nc(N(CCN(C)C)C(=O)c3cc4ccccc4cc3OC)sc2c1
IC50 [13]: 52 µM (inactive)
IC50 (Protein skinhead-1): > 100 µM (inactive)

CC(=O)C(=NNc1cc(C)ccc1O)C(C)=O
EC50 [14]: > 99 µM (inactive)
EC50 [15]: > 99 µM (inactive)

COc1cc(/C=C(\C#N)C(=O)Nc2cc(C(F)(F)F)ccc2Cl)ccc1OCC(=O)Nc1cccc(C(F)(F)F)c1
IC50 [16]: 32.5 µM (active)
IC50 [17]: > 100 µM (inactive)
IC50 (Prothrombin): 40.2 µM (active)

COc1cc(C(=O)Nc2ccc(S(=O)(=O)N3CCCCC3C)cc2)cc(OC)c1OC (stereo unspecified)
AC50 [4]: 19.8 µM (active)
